IC50 data for 38 molecules are collected here from BindingDB's records for doi:10.1016/j.bmcl.2004.04.032 (Bristol-Myers Squibb, 2004).

Each structure is given as a SMILES string.

In one experiment the target is T1, Thyroid hormone receptor alpha (Homo sapiens, UniProt P10827).
T1 sequence (P10827 whole entry): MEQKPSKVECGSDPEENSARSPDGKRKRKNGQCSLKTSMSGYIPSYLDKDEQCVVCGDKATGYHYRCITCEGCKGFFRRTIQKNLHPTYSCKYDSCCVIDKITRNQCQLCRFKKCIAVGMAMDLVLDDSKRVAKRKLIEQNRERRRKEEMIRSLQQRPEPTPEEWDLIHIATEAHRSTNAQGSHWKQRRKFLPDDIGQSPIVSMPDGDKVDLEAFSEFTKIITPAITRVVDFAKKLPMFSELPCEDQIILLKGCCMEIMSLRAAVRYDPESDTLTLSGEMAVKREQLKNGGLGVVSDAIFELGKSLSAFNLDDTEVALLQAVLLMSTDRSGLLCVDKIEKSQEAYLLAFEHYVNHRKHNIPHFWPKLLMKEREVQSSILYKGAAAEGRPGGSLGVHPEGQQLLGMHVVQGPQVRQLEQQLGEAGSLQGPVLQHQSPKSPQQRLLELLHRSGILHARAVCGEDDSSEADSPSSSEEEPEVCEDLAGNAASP
The experiment is described as follows: TRalpha-Binding Assay.
Conditions: not given
For `O=C(O)Cc1cc(Br)c(Oc2ccc(O)c(C(=O)Nc3ccccc3)c2)c(Br)c1` [2-{3,5-dibromo-4-[4-hydroxy-3-(phenylcarbamoyl)phenoxy]phenyl}acetic acid], the concentration for half-maximal inhibition (IC50) was 424 nM.
The same measure, in the same setting: in the case of `O=C(O)Cc1cc(Br)c(Oc2ccc(O)c(Oc3ccccc3O)c2)c(Br)c1` [2-{3,5-dibromo-4-[4-hydroxy-3-(2-hydroxyphenoxy)phenoxy]phenyl}acetic acid] it was 1470 nM; in that of `O=C(O)Cc1cc(Br)c(Oc2ccc(O)c(C(=O)NCC(c3ccccc3)c3ccccc3)c2)c(Br)c1` [2-(3,5-dibromo-4-{3-[(2,2-diphenylethyl)carbamoyl]-4-hydroxyphenoxy}phenyl)acetic acid], 18 nM.
`O=C(O)Cc1cc(Br)c(Oc2ccc(O)c(Oc3ccc(O)cc3)c2)c(Br)c1` [2-{3,5-dibromo-4-[4-hydroxy-3-(4-hydroxyphenoxy)phenoxy]phenyl}acetic acid] showed an IC50 of 237 nM.
With `O=C(O)Cc1cc(Br)c(Oc2ccc(O)c(Oc3cccc(-c4ccccc4)c3)c2)c(Br)c1` [2-{3,5-dibromo-4-[4-hydroxy-3-(3-phenylphenoxy)phenoxy]phenyl}acetic acid], the IC50 was determined as 499 nM. This IC50 is about 2.1-fold higher than that of the molecule before.
Molecule `O=C(O)Cc1cc(Br)c(Oc2ccc(O)c(Oc3cccc(O)c3)c2)c(Br)c1` [2-{3,5-dibromo-4-[4-hydroxy-3-(3-hydroxyphenoxy)phenoxy]phenyl}acetic acid] came in with an IC50 of 549 nM.
As to `COc1cccc(CCNC(=O)c2cc(Oc3c(Br)cc(CC(=O)O)cc3Br)ccc2O)c1` [2-[3,5-dibromo-4-(4-hydroxy-3-{[2-(3-methoxyphenyl)ethyl]carbamoyl}phenoxy)phenyl]acetic acid], the IC50 turned out to be 93 nM.
Take `O=C(O)Cc1cc(Br)c(Oc2ccc(O)c(Oc3ccccc3C(F)(F)F)c2)c(Br)c1` [2-(3,5-dibromo-4-{4-hydroxy-3-[2-(trifluoromethyl)phenoxy]phenoxy}phenyl)acetic acid]: the IC50 came out at 244 nM.
Same read-out and setting: in the case of `O=C(O)Cc1cc(Br)c(Oc2ccc(O)c(C(=O)NCCc3ccccc3)c2)c(Br)c1` [2-(3,5-dibromo-4-{4-hydroxy-3-[(2-phenylethyl)carbamoyl]phenoxy}phenyl)acetic acid] it was 15 nM; in that of `O=C(O)Cc1cc(Br)c(Oc2ccc(O)c(C(=O)NCCCCc3ccccc3)c2)c(Br)c1` [2-(3,5-dibromo-4-{4-hydroxy-3-[(4-phenylbutyl)carbamoyl]phenoxy}phenyl)acetic acid], 281 nM; in that of `O=C(O)Cc1cc(Br)c(Oc2ccc(O)c(Oc3cccc(C(F)(F)F)c3)c2)c(Br)c1` [2-(3,5-dibromo-4-{4-hydroxy-3-[3-(trifluoromethyl)phenoxy]phenoxy}phenyl)acetic acid], 50 nM.
Same read-out and setting: the same measure for `O=C(O)Cc1cc(Br)c(Oc2ccc(O)c(Oc3ccc(C(F)(F)F)cc3)c2)c(Br)c1` [2-(3,5-dibromo-4-{4-hydroxy-3-[4-(trifluoromethyl)phenoxy]phenoxy}phenyl)acetic acid]: 326 nM; for `O=C(O)Cc1cc(Br)c(Oc2ccc(O)c(Oc3ccccc3)c2)c(Br)c1` [2-[3,5-dibromo-4-(4-hydroxy-3-phenoxyphenoxy)phenyl]acetic acid]: 123 nM.
`O=C(O)Cc1cc(Br)c(Oc2ccc(O)c(C(=O)NCc3ccccc3)c2)c(Br)c1` [2-{4-[3-(benzylcarbamoyl)-4-hydroxyphenoxy]-3,5-dibromophenyl}acetic acid] came in with an IC50 of 84 nM.
On the same count and under the same terms, in the case of `O=C(O)Cc1cc(Br)c(Oc2ccc(O)c(C(=O)NCCc3ccccn3)c2)c(Br)c1` [2-[3,5-dibromo-4-(4-hydroxy-3-{[2-(pyridin-2-yl)ethyl]carbamoyl}phenoxy)phenyl]acetic acid] it was 1130 nM; in that of `O=C(O)Cc1cc(Br)c(Oc2ccc(O)c(C(=O)NCCCc3ccccc3)c2)c(Br)c1` [2-(3,5-dibromo-4-{4-hydroxy-3-[(3-phenylpropyl)carbamoyl]phenoxy}phenyl)acetic acid], 203 nM.
The same measure, in the same setting: in the case of `O=C(O)Cc1cc(Cl)c(Oc2ccc(O)c(C(=O)NCCc3ccccc3)c2)c(Cl)c1` [2-(3,5-dichloro-4-{4-hydroxy-3-[(2-phenylethyl)carbamoyl]phenoxy}phenyl)acetic acid] it was 127 nM; in that of `COc1ccc(CCNC(=O)c2cc(Oc3c(Br)cc(CC(=O)O)cc3Br)ccc2O)cc1` [2-[3,5-dibromo-4-(4-hydroxy-3-{[2-(4-methoxyphenyl)ethyl]carbamoyl}phenoxy)phenyl]acetic acid], 228 nM; in that of `COc1ccccc1CCNC(=O)c1cc(Oc2c(Br)cc(CC(=O)O)cc2Br)ccc1O` [2-[3,5-dibromo-4-(4-hydroxy-3-{[2-(2-methoxyphenyl)ethyl]carbamoyl}phenoxy)phenyl]acetic acid], 96 nM.

Staying with this experiment, now noted: pH 7; 4 °C.
For the molecule `O=C(O)Cc1cc(Cl)c(Oc2ccc(O)c(-c3cccc(OC(F)(F)F)c3)c2)c(Cl)c1` [2-(3,5-dichloro-4-{4-hydroxy-3-[3-(trifluoromethoxy)phenyl]phenoxy}phenyl)acetic acid], the IC50 was 100 nM.
The same measure, in the same setting: the same measure for `O=C(O)Cc1cc(Cl)c(Oc2ccc(O)c(-c3ccccc3O)c2)c(Cl)c1` [2-{3,5-dichloro-4-[4-hydroxy-3-(2-hydroxyphenyl)phenoxy]phenyl}acetic acid]: 1050 nM.
For the molecule `O=C(O)Cc1cc(Cl)c(Oc2ccc(O)c(-c3ccc(C(F)(F)F)cc3)c2)c(Cl)c1` [2-(3,5-dichloro-4-{4-hydroxy-3-[4-(trifluoromethyl)phenyl]phenoxy}phenyl)acetic acid], the IC50 was 515 nM.
Still for that read-out and setting: the same measure for `O=C(O)Cc1cc(Cl)c(Oc2ccc(O)c(-c3ccccc3C(F)(F)F)c2)c(Cl)c1` [2-(3,5-dichloro-4-{4-hydroxy-3-[2-(trifluoromethyl)phenyl]phenoxy}phenyl)acetic acid]: 18 nM; for `COc1cccc(-c2cc(Oc3c(Cl)cc(CC(=O)O)cc3Cl)ccc2O)c1` [2-{3,5-dichloro-4-[4-hydroxy-3-(3-methoxyphenyl)phenoxy]phenyl}acetic acid]: 297 nM; for `O=C(O)Cc1cc(Cl)c(Oc2ccc(O)c(-c3ccc(O)cc3)c2)c(Cl)c1` [2-{3,5-dichloro-4-[4-hydroxy-3-(4-hydroxyphenyl)phenoxy]phenyl}acetic acid]: 847 nM.
Still for that read-out and setting: the same measure for `CCc1cccc(-c2cc(Oc3c(Cl)cc(CC(=O)O)cc3Cl)ccc2O)c1` [2-{3,5-dichloro-4-[3-(3-ethylphenyl)-4-hydroxyphenoxy]phenyl}acetic acid]: 13 nM.
On the same count and under the same terms, the same measure for `O=C(O)Cc1cc(Cl)c(Oc2ccc(O)c(-c3cccc(-c4ccccc4)c3)c2)c(Cl)c1` [2-{3,5-dichloro-4-[4-hydroxy-3-(3-phenylphenyl)phenoxy]phenyl}acetic acid]: 454 nM; for `O=C(O)Cc1cc(Cl)c(Oc2ccc(O)c(C3CCCCC3)c2)c(Cl)c1` [2-[3,5-dichloro-4-(3-cyclohexyl-4-hydroxyphenoxy)phenyl]acetic acid]: 258 nM; for `O=C(O)Cc1cc(Cl)c(Oc2ccc(O)c(-c3cccc(C(F)(F)F)c3)c2)c(Cl)c1` [2-(3,5-dichloro-4-{4-hydroxy-3-[3-(trifluoromethyl)phenyl]phenoxy}phenyl)acetic acid]: 40 nM.
In turn, `CC(C)c1cccc(-c2cc(Oc3c(Cl)cc(CC(=O)O)cc3Cl)ccc2O)c1` [2-(3,5-dichloro-4-{4-hydroxy-3-[3-(propan-2-yl)phenyl]phenoxy}phenyl)acetic acid] came in with an IC50 of 124 nM.
`O=C(O)Cc1cc(Cl)c(Oc2ccc(O)c(-c3cccc(OC(F)F)c3)c2)c(Cl)c1` [2-(3,5-dichloro-4-{3-[3-(difluoromethoxy)phenyl]-4-hydroxyphenoxy}phenyl)acetic acid] displayed a concentration for half-maximal inhibition (IC50) of 30 nM.
Still for that read-out and setting: in the case of `O=C(O)Cc1cc(Cl)c(Oc2ccc(O)c(-c3nccs3)c2)c(Cl)c1` [2-{3,5-dichloro-4-[4-hydroxy-3-(1,3-thiazol-2-yl)phenoxy]phenyl}acetic acid] it was 558 nM.
Regarding `O=C(O)Cc1cc(Cl)c(Oc2ccc(O)c(-c3cccnc3)c2)c(Cl)c1` [2-{3,5-dichloro-4-[4-hydroxy-3-(pyridin-3-yl)phenoxy]phenyl}acetic acid], the IC50 turned out to be 819 nM. This IC50 and that of the molecule before are within 1.5-fold of each other.
In turn, `O=C(O)Cc1cc(Cl)c(Oc2ccc(O)c(-c3ccncc3)c2)c(Cl)c1` [2-{3,5-dichloro-4-[4-hydroxy-3-(pyridin-4-yl)phenoxy]phenyl}acetic acid] returned an IC50 of 145 nM. Against the preceding molecule, the IC50 is about 5.6-fold lower.
Same read-out and setting: the same measure for `O=C(O)Cc1cc(Cl)c(Oc2ccc(O)c(-c3cccc(O)c3)c2)c(Cl)c1` [2-{3,5-dichloro-4-[4-hydroxy-3-(3-hydroxyphenyl)phenoxy]phenyl}acetic acid]: 1160 nM; for `O=C(O)Cc1cc(Cl)c(Oc2ccc(O)c(-c3ccccn3)c2)c(Cl)c1` [2-{3,5-dichloro-4-[4-hydroxy-3-(pyridin-2-yl)phenoxy]phenyl}acetic acid]: 1520 nM; for `O=C(O)Cc1cc(Cl)c(Oc2ccc(O)c(-c3cncnc3)c2)c(Cl)c1` [2-{3,5-dichloro-4-[4-hydroxy-3-(pyrimidin-5-yl)phenoxy]phenyl}acetic acid]: 269 nM.
In the case of `O=C(O)Cc1cc(Cl)c(Oc2ccc(O)c(-c3ccccc3)c2)c(Cl)c1` [2-[3,5-dichloro-4-(4-hydroxy-3-phenylphenoxy)phenyl]acetic acid], the IC50 turned out to be 152 nM.

As a reminder, the IC50 is the point on the concentration scale where inhibition reaches its midpoint. A low value points to greater potency.
